Experiment: Ex-vivo delivery of doxazosin mesylate from coated polyurethane tubing to ureter tissue
Type: in vitro ADME
Details: 7 cm coated 6 Fr. polyurethane tubing in 9 cm porcine ureter, approximately 18 hours at 37° C., PBS pH=7.4; HPLC; compared with coating with no triacetin or DMSO; FIG. 6
Method: However, the increase in the amount bioactive delivered through a vessel wall may be characterized in an ex vivo assay in which the composition or implantable device is placed in a section of the appropriate vessel and incubated in a buffer solution for a fixed time. In one such assay, a device, for example, is placed in a section of porcine ureter, which is hydrated in a Phosphate Buffered Saline buffer. The ureter is incubated in a closed container for a fixed time, for example 24 hrs at 37 deg. C. […] The amount of bioactive present in the ureter and in the device is determined using, for example, an appropriate HPLC method. […]
A 7 cm section of each of the samples of tubing prepared as described in Example 1 is inserted into 9 cm of porcine ureter and incubated for approximately 18 hours at 37° C. in a screw capped glass vial hydrated with 0.25 ml of PBS (pH=7.4). […] The amount of doxazosin mesylate present in the tubing and in the ureter is determined as described in example 3.
Each of the samples from Example 2 is tested to determine the amount of doxazosin mesylate delivered to the ureter tissue. Doxazosin mesylate is extracted from each tube and ureter and the percentage that is delivered to each ureter is determined as follows. […] The amount of doxazosin mesylate in each of the ureter and the tubing is measured using HPLC.

Structure (SMILES)	percentage of doxazosin mesylate present in the ureter (amount delivered to ureter tissue)
CC(=O)OCC(COC(C)=O)OC(C)=O [triacetin]	increase the amount of doxazosin mesylate delivered
C[S+](C)[O-] [DMSO, dimethyl sulfoxide]	increase the amount of doxazosin mesylate delivered
